No end group written: not given here.
Columns and labels:
CiOX [1] = assay type: cell-based; conditions: 100 µM
Description: (§3) The Flp-In T-REx 293 human cell line (Thermofisher Scientific, Waltham, MA, USA), based on HEK293 cells, was cultured at 37 °C in 5% CO2 in an air‐ventilated humidified incubator according to manufacturer’s protocol, in high glucose Dulbecco’s Modified Eagle Medium (Biowest, Nuaillé, France) supplemented with 10% FBS, 1% Glutamax (Gibco), 10 mM HEPES (VWR LifeScience, Radnor, PA, USA), 100 U/mL penicillin G (Sigma Chemical Co., St. Louis, MO, USA), 80 U/mL streptomycin (Sigma), blasticidin (15 µg/mL) (InvivoGen, San Diego, CA, USA). The host cell line was maintained with zeocin (100 µg/mL) (InvitroGen, Carlsbad, CA, USA) and the transfected cell lines with hygromycin B (100 µg/mL) (InvitroGen). The experimental medium, the HEPES-buffered medium, (HBM: 137 mM NaCl, 5 mM KCl, 1.2 mM MgCl2, 0.44 mM KH2PO4, 4.2 mM NaHCO3, 1 mM CaCl2, 10 mM glucose, 20 mM HEPES, adjusted to pH 7.4 with NaOH), was used in all laboratory experiments. For the calcium elevation assay, HBM was supplemented with 1 mM probenecid [4-(dipropylsulfamoyl)benzoic acid] (Sigma) and 0.2% lipid-free bovine serum album.
(§4) Calcium measurements were performed in triplicate or quadruplicate. […] Non-linear curve-fitting were conducted with Prism 5 (GraphPad Software Inc., La Jolla, CA, USA) using the following equation: Y=basal+responsemax-basal/1+10^logEC50-X

[2] = system: wild-type Flp-In T-REx 293 cells; assay: Calcium elevation assay in wild-type Flp-In T-REx 293 cells; assay type: cell-based, human; conditions: for Ca2+ elevation in wild-type cells: wild-type Flp-In T-REx 293 cells, concentration-response, N = 3
Description: as §3, §4

CiOX [3] = target: T1, CiOX (Ciona intestinalis, UniProt F6YII5); assay type: cell-based; conditions: CiOX-eGFP-expressing Flp-In T-REx 293 cells
T1 sequence (F6YII5 1-372): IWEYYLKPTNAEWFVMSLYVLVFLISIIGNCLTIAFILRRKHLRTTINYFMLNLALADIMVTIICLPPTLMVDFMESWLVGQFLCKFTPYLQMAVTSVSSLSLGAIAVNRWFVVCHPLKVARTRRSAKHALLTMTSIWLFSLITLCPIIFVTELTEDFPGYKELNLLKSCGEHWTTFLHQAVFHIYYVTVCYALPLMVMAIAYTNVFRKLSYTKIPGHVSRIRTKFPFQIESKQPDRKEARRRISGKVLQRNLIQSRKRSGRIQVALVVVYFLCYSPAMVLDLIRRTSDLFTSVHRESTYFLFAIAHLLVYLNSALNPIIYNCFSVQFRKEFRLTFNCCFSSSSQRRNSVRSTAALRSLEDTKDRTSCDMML
Description: as §3, §4

CiOX [4] = assay: Inhibition of human orexin peptide-mediated Ca2+ responses in CiOX-expressing cells; assay type: cell-based, Ciona intestinalis; conditions: agonist orexin-A and -B 1 µM; inhibitor 1 µM added 30 min before; mean ± S.E.M., N = 3-4
Description: Figure 7 The sensitivity of the human endogenous orexin peptide (1 µM) -mediated Ca^2+ responses to inhibitors (1 µM) in CiOX-expressing cells. The responses were normalized to the basal + inhibitor (0%) and the control agonist peptide response (in the absence of inhibitor; 100%) separately for each independent experiment before averaging. Data presented as mean ± S.E.M. N = 3–4. The significances are given in relation to the agonist control.
Intracellular calcium elevation is the apparent response upon orexin receptor activation in many cell types. The calcium elevation assay was conducted as previously described. Cells, 1 × 10^5 per well, were plated on polyethyleneimine (25 μg/mL, 1 h, 37 °C)-coated black, clear-bottom, half-area 96-well plates (Greiner). After 24 h, 100 ng/mL doxycycline was added onto the cells and incubated for another 24 h before loading the cells with FLIPR Calcium 5 Assay Kit (Molecular Devices, Sunnyvale, CA, USA) dissolved in and diluted with HBM and supplemented as described above. Cells were incubated for 1 h with the loading dye, before running the assay in FlexStation 3 fluorescence plate reader (Molecular Devices). Inhibitors were added manually at the midpoint of the probe incubation (30 min). Intracellular Ca^2+ levels were measured as fluorescent changes for 150 s (of which 30 s baseline prior to stimulation) with excitation at 485 nm, emission at 525 nm (recording every 1.3 s) at 37 °C.
The data were normalized in each experiment to the control response and then averaged between experiments by calculation of mean ± S.E.M. The N denotes the number of independent experiments and was always at least 3. Paired two-tailed t-test was used for comparison. Significances were as follows: * P < 0.05, ** P < 0.01, *** P < 0.001.

[5] = system: allatotropin receptor of Tribolium castaneum; conditions: cited from earlier work
Description: The data presented in this study strongly support the notion that this orphan C. intestinalis receptor, here called CiOX, is an orexin-like receptor. Despite the sequence divergence, the (proposed) binding cavity of hOX2 and CiOX are highly similar.

[6] = system: wild-type Flp-In T-REx 293 cells; assay: Binding of TAMRA-orexin-A (fluorescence microscopy) in wild-type Flp-In T-REx 293 cells; design: species or system human; conditions: 30 nM; 10-minute incubation
Description: (§1) We have previously observed that the N-terminus of orexin-A can tolerate additions without apparent loss of activity on orexin receptors (Kukkonen, unpublished) and it has been reported that fluorescently labelled orexin-A can be used as probe for hOX1/2[56].
(§2) The cells were seeded on polyethyleneimine-coated 25 mm circular glass coverslips (Menzel-Gläser, Braunschweig, Germany). Twenty-four hours after seeding, cells were treated with doxycycline (100 ng/mL) and incubated for another 24 h. Then, the coverslip was washed once with HBM, before mounting in the microfluorometric experiment chamber. The imaging system, composed of the Sutter Lambda DG-4 xenon light source/filter shifter (Sutter Instrument Company, Novato, CA, USA), Nikon TE2000 epifluorescence microscope (Nikon, Tokyo, Japan), Nikon Apo TIRF 60×/1.49 oil immersion objective and Andor iXon 885 electron-multiplying charge-coupled device camera (Oxford Instruments, Abingdon, Oxfordshire, UK), was under the control of the Nikon NIS Elements AR software. Images were alternately acquired at 480/30 nm excitation/510 nm dichroic mirror/535/40 nm emission for eGFP fluorescence and at 540/25 nm excitation/565 nm dichroic mirror/605/55 nm emission for TAMRA fluorescence. […]

CiOX [7] = target: T1, CiOX; assay: Binding of TAMRA-orexin-A (fluorescence microscopy) in CiOX-eGFP-expressing cells; conditions: 30 nM
Description: as §1
The cells were seeded on polyethyleneimine-coated 25 mm circular glass coverslips (Menzel-Gläser, Braunschweig, Germany). Twenty-four hours after seeding, cells were treated with doxycycline (100 ng/mL) and incubated for another 24 h. Then, the coverslip was washed once with HBM, before mounting in the microfluorometric experiment chamber. The imaging system, composed of the Sutter Lambda DG-4 xenon light source/filter shifter (Sutter Instrument Company, Novato, CA, USA), Nikon TE2000 epifluorescence microscope (Nikon, Tokyo, Japan), Nikon Apo TIRF 60×/1.49 oil immersion objective and Andor iXon 885 electron-multiplying charge-coupled device camera (Oxford Instruments, Abingdon, Oxfordshire, UK), was under the control of the Nikon NIS Elements AR software. Images were alternately acquired at 480/30 nm excitation/510 nm dichroic mirror/535/40 nm emission for eGFP fluorescence and at 540/25 nm excitation/565 nm dichroic mirror/605/55 nm emission for TAMRA fluorescence. A pair of images was acquired once per minute or once per every five minutes depending on the incubation time; i.e., for a longer incubation 5 min was used to avoid potential bleaching. All the additions were made by direct pipetting into the chamber. Experiments were carried out at room temperature. 30 nM TAMRA-orexin-A was used.

hOX1 = assay: Binding of TAMRA-orexin-A (fluorescence microscopy) in hOX1-eGFP-expressing cells; design: species or system human; conditions: 30 nM
Description: as §1, §2

[8] = target: Ciona intestinalis putative orexin receptor fused to eGFP (Ciona intestinalis)
[9] = room temperature, red fluorescence

Molecule: Nc1ncnc2c1ncn2[C@@H]1O[C@H](COP(=O)(O)OP(=O)(O)OP(=O)(O)O)[C@@H](O)[C@H]1O [ATP]
- Ca2+ response to positive control in CiOX-expressing cells (CiOX [1]): robust Ca^2+ response
- Ca2+ response to positive control in wild-type cells ([2]; 100 µM): robust Ca^2+ response

Molecule: COc1ccc(-c2cccc(C(=O)N(C)C)c2)cc1S(=O)(=O)Nc1cccc(NCCNC(=O)c2cccc(C)c2)c1 [Nag 26, N-[2-[3-[[5-[3-(dimethylcarbamoyl)phenyl]-2-methoxyphenyl]sulfonylamino]anilino]ethyl]-3-methylbenzamide]
- Ca2+ elevation in CiOX receptor-expressing cells (CiOX [3]): induced no Ca^2+ elevation
- Ca2+ elevation in wild-type cells [2]: induced no Ca^2+ elevation

Molecule: Cc1nc2ccc(NC(=O)Nc3ccnc4cccnc34)cc2o1 [SB-334867]
- Inhibition of Ca2+ responses to CiOX stimulation with orexin-A and -B (CiOX [4]): much weaker effect

Molecule: Cn1c(SCC(=O)N2CCC[C@H]2C(=O)Nc2ccccc2-c2ccccc2)nc2ccccc21 [TCS 1102, (2S)-1-[2-(1-methylbenzimidazol-2-yl)sulfanylacetyl]-N-(2-phenylphenyl)pyrrolidine-2-carboxamide]
- Inhibition of Ca2+ responses to CiOX stimulation with orexin-A and -B (CiOX [4]): nearly fully blocked the response

Molecule: CNC(=O)[C@@H](c1ccccc1)N1CCc2cc(OC)c(OC)cc2[C@@H]1CCc1ccc(C(F)(F)F)cc1 [almorexant, (2R)-2-[(1S)-6,7-dimethoxy-1-[2-[4-(trifluoromethyl)phenyl]ethyl]-3,4-dihydro-1H-isoquinolin-2-yl]-N-methyl-2-phenylacetamide]
- Inhibition of Ca2+ responses to CiOX stimulation with orexin-A and -B (CiOX [4]): nearly fully blocked the response
- Inhibition of the allatotropin receptor of Tribolium castaneum [5]: not inhibited

Molecule: M. sexta allatotropin: Manduca sexta allatotropin from Bachem (GFKNVEMMTARGF)
- Ca2+ elevation in CiOX receptor-expressing cells (CiOX [3]): induced no Ca^2+ elevation
- Ca2+ elevation in wild-type cells [2]: induced no Ca^2+ elevation

Molecule: TAMRA-orexin-A: 5-/6-carboxytetramethylrhodamine (TAMRA)-labelled human orexin-A, custom synthesis (QPLPDCCRQKTCSCRLYELLHGAGNHAAGILTL; ends and bridges not checked; also: TAMRA label, place not given here; UniProt O43612 34-66, looked up)
- Binding to wild-type Flp-In T-REx 293 cells [6]: did not bind
- Internalization (intracellular red fluorescence) in CiOX receptor-expressing cells (CiOX [7]): did not observe this
- Time for which the bound fluorescence intensity remained stable in CiOX-eGFP-expressing cells (CiOX [7]; room temperature): at least 30 min
- Binding to the plasma membranes of CiOX-eGFP-expressing cells (CiOX [7]; [9]): bound to the plasma membranes of the CiOX receptor-expressing cells
- Internalization (intracellular red fluorescence) in hOX1 receptor-expressing cells (hOX1): intracellular red fluorescence suggesting internalization
- Binding to the plasma membranes of hOX1-eGFP-expressing cells (hOX1; [9]): bound to the plasma membranes of OX1 cells quickly after the addition

Molecule: [(1R)-1-[(3S,6S,9S,12S,18R,21S,22R)-21-acetamido-18-benzyl-3-[(1R)-1-methoxyethyl]-4,9,10,12,16-pentamethyl-15-methylidene-2,5,8,11,14,17,20-heptaoxo-22-propan-2-yl-1,19-dioxa-4,7,10,13,16-pentazacyclodocos-6-yl]-2-methylpropyl] (2S,3R)-3-hydroxy-4-methyl-2-(propanoylamino)pentanoate [UBO-QIC]
- Inhibition of Ca2+ responses to CiOX stimulation with orexin-A and -B (CiOX [4]): nearly fully inhibited

Molecule: human orexin-A (peptide)
- EC50 of the Ca2+ elevation in CiOX-eGFP-expressing Flp-In T-REx 293 cells (CiOX-specific response, wild-type response subtracted) [8]: 225 nM

Molecule: orexin-A15–33: The 19-amino acid-long C-terminal fragment of orexin-A (RLYELLHGAGNHAAGILTL; ends and bridges not checked)
- EC50 of Ca2+ elevation (CiOX [3]; doxycycline 100 ng/mL 24 h, 37 °C, mean ± S.E.M., N = 3): no saturation was reached
- Ca2+ elevation in wild-type cells [2]: weakly elevated Ca^2+

Reference: paper PMC10987541, “Characterization of a putative orexin receptor in Ciona intestinalis sheds light on the evolution of the orexin/hypocretin system in chordates” (Scientific Reports, 2024)
